From US10336792B2, “Antimicrobial peptide dendrimers” (priority 2014, dated 2019)
≈ marks a conversion by molar mass, not a printed value. Positions of bridges follow the written chain, without caps; N, C: chain ends. Residues, ends and D or L forms follow the SMILES beside them. Groups on a side chain read outwards from the residue. Chains are numbered I, II in the order given. *: point of attachment. Lauroyl = CCCCCCCCCCCC(=O)*

How the values were obtained:
male wistar rats = assay: In-vivo toxicity study, single i.v. injection; design: species or system rat
From the text: 4-6 weeks old male wistar rats (weight range 200-500 g) were used in toxicity experiments. Rats were obtained from Zentrale Tierställe Bern (Department of Clinical Research from University of Bern) and housed 4 per cage. Each experimental group includes two rats. All procedures, care and handling of the animals were reviewed and approved by the Veterinärdienst of Kanton Bern, Schweiz and execute in collaboration with the group of Prof. Hugues Abriel from Department of Clinical Research from University of Bern.
Rats were anesthetized with 4% isoflurane and 1 L/min oxygen in an induction chamber. When the rats were sleeping they were transferred on a clinical drape and anesthetized with 1-2% isoflurane and 0.8 l/min oxygen via a mask. The tail was warmed up with warm water and disinfected with 70% ethanol. The intravenous (i.v.) injections into the tail vein included a single dose of the AMPD of 2 mg/kg rat in 500 μL PBS. Before injection each rat was weighted individually and the exact dosage was determined. All rats, including control groups with no injection and i.v. injection of 500 μL PBS, were monitored for their survival and behavior for two days.
The compounds MSt-112, a 3rd generation AMPD with KL motive, MSt-181 its D-enantiomer analogue, MSt-242, a the 3rd generation with RL motive, and MSt-114 with Tyr instead of Lys in the 3rd generation were used for in vivo experiments with male wistar rats to assess their toxicity. These compounds were selected due to their high potencies and high MHCs values, which are at least 10 times higher than their activities. Each compound (concentration of 2 mg/kg) was applied to two rats by intravenous injection into the tail vein to observe if the AMPDs are well tolerated or may cause adverse effects. The concentration used was approx. 5-10 times higher than the MICs. […] The behaviour of the rats was normal. […] Therefore it seems that rats tolerate AMPDs very well, without visible site effects or even casualties.

[1] = system: Pseudomonas aeruginosa (strain PA01); assay: microbe, parasite or virus in culture; format: cell-based; conditions: strain
Summary of the method: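 Broth microdilution MIC against P. aeruginosa PAO1 in LB: peptides serially diluted by ⅔, bacteria added at OD600 0.001 and incubated 18–24 h at 37 °C. MTT added; MIC is the lowest concentration preventing visible growth.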

[2] = system: Bacillus subtilis (strain BR151); format: cell-based; conditions: strain BR151
Summary of the method: (§1)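 Broth microdilution MIC in LB; overnight cultures diluted to OD600 0.001 and mixed 1:1 with ⅔-serially diluted samples (stock 1 mg mL^−1 in H2O), 37° C for 18-24 h. MTT (0.1%) added; MIC read by eye as lowest concentration inhibiting visible growth (yellow).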

[3] = system: Staphylococcus aureus (COL, MRSA reference strain); format: cell-based; conditions: COL, reference strain
Description: Antimicrobial activity was assayed against P. aeruginosa PA01 (WT), P. aeruginosa PT1482 (A-), PT1485 (A-B-), PT1149 (A-B-C-algC), PT331 (Z61) (LPS mutants), P. aeruginosa PEJ2.6, PEJ9.1, ZEM1.A, ZEM9.A (clinical isolates from Université de Genève/Centre Médical Universitaire), Burkholderia cenocepacia (B. ceno), Staphylococcus aureus (S. aureus, MRSA strain) and Acinetobacter baumannii (A. baum) (clinical isolates from Université de Genève/Centre Médical Universitaire). To determine the minimal inhibitory concentration (MIC), microdilution broth method was used. A colony of bacteria was grown in MH-medium overnight at 37° C. The samples were prepared as stock solutions of 8 mg mL^−1 in H2O, diluted to the beginning concentration of 32, 64, 128 or 256 μg/mL in 300 μL MH-medium, added to the first well of 96-well microtiterplate (TPP, untreated) and diluted serially by ½. The concentration of the bacteria was quantified by measuring absorbance at 600 nm and diluted to OD600=0.022 in MH-medium. The sample solutions (150 μL) were mixed with 4 μL diluted bacterial suspension with a final inoculation of about of 5×10^5 CFU. The plates were incubated at 37° C. until satisfactory growth (˜18 h). For each test, two columns of the plate were kept for sterility control (SC, broth only) and growth control (GC, broth with bacterial inoculums, no antibiotics). The minimal inhibitory concentration (MIC) was defined as the lowest concentration of the antimicrobial substance (peptide dendrimer) that inhibited visible growth of the tested bacteria with the unaided eye. For microbiological study Polymyxin was used as references.
Ten of the most promising compounds (FIG. 5) were tested for their efficiency against four clinical isolates of P. aeruginosa (ZEM9.A, ZEM1.A, PEJ2.6, PEJ9.1), one S. aureus (COL, MRSA reference strain) and one A. baumannii strain. For the experiments in Genève the peptide dendrimers and reference compounds (polymyxin) were dissolved in PBS and the assay was carried out in Müller-Hinton (MH) broth with a two-fold dilution.

[4] = system: Escherichia coli (strain DH5α); format: cell-based; conditions: DH5α
Summary of the method: as §1

| MIC S. aureus (COL, MRSA reference strain) [3] | MIC E. coli DH5α [4] | SMILES | visible effects and behaviour after injection (male wistar rats; 2 mg/kg single i.v. dose into tail vein, two rats) | survival rate (male wistar rats; 2 mg/kg single i.v. dose, monitored 2 days) | MIC P. aeruginosa PAO1 [1] | MIC B. subtilis BR151 [2] |
| --- | --- | --- | --- | --- | --- | --- |
| – | – | CC(C)C[C@H](NC(=O)[C@H](CCCCN)NC(=O)[C@H](CCCCNC(=O)[C@H](CC(C)C)NC(=O)[C@H](CCCCN)NC(=O)[C@H](CCCCNC(=O)[C@H](CC(C)C)NC(=O)[C@H](CCCCN)NC(=O)[C@H](CCCCNC(=O)[C@H](Cc1ccc(O)cc1)NC(=O)[C@@H](N)CCCCN)NC(=O)[C@H](Cc1ccc(O)cc1)NC(=O)[C@@H](N)CCCCN)NC(=O)[C@H](CC(C)C)NC(=O)[C@H](CCCCN)NC(=O)[C@H](CCCCNC(=O)[C@H](Cc1ccc(O)cc1)NC(=O)[C@@H](N)CCCCN)NC(=O)[C@H](Cc1ccc(O)cc1)NC(=O)[C@@H](N)CCCCN)NC(=O)[C@H](CC(C)C)NC(=O)[C@H](CCCCN)NC(=O)[C@H](CCCCNC(=O)[C@H](CC(C)C)NC(=O)[C@H](CCCCN)NC(=O)[C@H](CCCCNC(=O)[C@H](Cc1ccc(O)cc1)NC(=O)[C@@H](N)CCCCN)NC(=O)[C@H](Cc1ccc(O)cc1)NC(=O)[C@@H](N)CCCCN)NC(=O)[C@H](CC(C)C)NC(=O)[C@H](CCCCN)NC(=O)[C@H](CCCCNC(=O)[C@H](Cc1ccc(O)cc1)NC(=O)[C@@H](N)CCCCN)NC(=O)[C@H](Cc1ccc(O)cc1)NC(=O)[C@@H](N)CCCCN)C(N)=O [MSt-114, (KY)8(KKL)4(KKL)2(KKL)] (I: H-KYK([Tyr-Lys])KLKKLKKL-NH2 / II: H-KYK([Tyr-Lys])KLKKL / III: H-KYK([Tyr-Lys])KL / IV: H-KYK([Tyr-Lys])KL; amide I:6-IV:C, I:9-II:C, II:6-III:C) | slightly bluish extremities which subsided after approx. 5 min | 100% | 2 µg/mL (≈ 0.405 µM) | 13 µg/mL (≈ 2.63 µM) |
| below 20 μg/mL | 1 µg/mL (≈ 0.416 µM) | CCCCCCCCCCCC(=O)NCCCC[C@H](NC(=O)[C@H](CC(C)C)NC(=O)[C@H](CCCCN)NC(=O)[C@H](CCCCNC(=O)[C@H](CC(C)C)NC(=O)[C@H](CCCCN)NC(=O)[C@H](CCCCNC(=O)[C@H](CC(C)C)NC(=O)[C@@H](N)CCCCN)NC(=O)[C@H](CC(C)C)NC(=O)[C@@H](N)CCCCN)NC(=O)[C@H](CC(C)C)NC(=O)[C@H](CCCCN)NC(=O)[C@H](CCCCNC(=O)[C@H](CC(C)C)NC(=O)[C@@H](N)CCCCN)NC(=O)[C@H](CC(C)C)NC(=O)[C@@H](N)CCCCN)C(N)=O [MSt-263, (KL)4(KKL)2(KKLKC12)] (I: H-KLK([Leu-Lys])KLKKLK(Lauroyl)-NH2 / II: H-KLK([Leu-Lys])KL; amide I:6-II:C) | – | – | 1 µg/mL (≈ 0.416 µM) | 2 µg/mL (≈ 0.833 µM) |
